Like-named read-outs stand apart in the source and are kept apart here.
Tests used:
μ opiate receptor (MOR) = biological target: T1, μ opiate receptor (MOR) (Rattus norvegicus, UniProt P33535); assay: MOR agonist activity, [35S]GTPγS binding assay using striatal membranes; assay type: biochemical; settings: for [35S]GTPγS binding to Gαo, FLNA-binding compound as agonist 0.1 μM: 0.1 μM compound; for [35S]GTPγS binding to Gαo, FLNA-binding compound as agonist 0.1 μM / [35S]GTPγS binding to Gαo, FLNA-binding compound as agonist 1 μM: striatal membranes; for [35S]GTPγS binding to Gαo, FLNA-binding compound as agonist 1 μM + BFNA: 1 μM compound + 1 μM β-funaltrexamine; for [35S]GTPγS binding to Gαo, FLNA-binding compound as agonist 1 μM: 1 μM compound; for % DAMGO + BFNA: relative to DAMGO + BFNA; for % DAMGO (0.1 μM) / % DAMGO (1 μM): relative to DAMGO
T1 construct: from tissue; host or cells: striatal tissue (membrane preparation)
Method: To assess the μ opiate receptor (MOR) agonist activity of positive compounds from the FLNA screening, compounds were tested in a [^35S]GTPγS binding assay using striatal membranes.
Striatal tissue was homogenized in 10 volumes of ice cold 25 mM HEPES buffer, pH 7.4, which contained 1 mM EGTA, 100 mM sucrose, 50 μg/ml leupeptin, 0.04 mM PMSF, 2 μg/ml soybean trypsin inhibitor and 0.2% 2-mercaptoethanol. The homogenates were centrifuged at 800×g for 5 minutes and the supernatants were centrifuged at 49,000×g for 20 minutes. The resulting pellets were suspended in 10 volume of reaction buffer, which contained 25 mM HEPES, pH 7.5, 100 mM NaCl, 50 μg/ml leupeptin, 2 μg/ml soybean trypsin inhibitor, 0.04 mM PMSF and 0.02% […].
The resultant striatal membrane preparation (200 μg) was admixed and maintained (incubated) at 30° C. for 5 minutes in reaction buffer as above that additionally contained 1 mM MgCl2 and 0.5 nM [^35S]GTPγS (0.1 μCi/assay, PerkinElmer Life and Analytical Sciences) in a total volume of 250 μl and continued for 5 minutes in the absence or presence of 0.1-10 μM of an assayed compound of interest. The reaction was terminated by dilution with 750 μl of ice-cold reaction buffer that contained 20 mM MgCl2 and 1 mM EGTA and immediate centrifugation at 16,000×g for 5 minutes.
The resulting pellet was solubilized by sonicating for 10 seconds in 0.5 ml of immunoprecipitation buffer containing 0.5% digitonin, 0.2% sodium cholate and 0.5% NP-40. Normal rabbit serum (1 μl) was added to 1 ml of lysate and incubated at 25° C. for 30 minutes. Nonspecific immune complexes were removed by incubation with 25 μl of protein A/G-conjugated agarose beads at 25° C. for 30 minutes followed by centrifugation at 5,000×g at 4° C. for 5 minutes. The supernatant was divided and separately incubated at 25° C. for 30 minutes with antibodies raised against Gao proteins (1:1,000 dilutions).
The immunocomplexes so formed were collected by incubation at 25° C. for 30 minutes with 40 μl of agarose-conjugated protein A/G beads and centrifugation at 5,000×g at 4° C. for 5 minutes. The pellet was washed and suspended in buffer containing 50 mM Tris-HCl, pH 8.0, and 1% NP-40. The radioactivity in the suspension was determined by liquid scintillation spectrometry. […] DAMGO (H-Tyr-D-Ala-Gly-N-MePhe-Gly-OH; 1 or 10 μM) was used as a positive control.

[1] = tested on: MOR coupling to Gαs/olf and Gαo; assay: Relative Gs/Go switching, MOR-G protein coupling in organotypic striatal slice cultures; assay type: cell-based; settings: rat striatal slices
Method: Striatal slices ([…]) were prepared using a McIlwain tissue chopper (Mickle Laboratory Engineering Co., Surrey, UK). Slices were carefully transferred to sterile, porous culture inserts (0.4 μm, Millicell-CM) using the rear end of a glass Pasteur pipette. Each culture insert unit contained 2 slices and was placed into one well of the 12-well culture tray. […] The pH value was adjusted to 7.2 with HEPES buffer.
Cultures were first incubated for 2 days to minimize the impact of injury from slice preparation. Incubator settings throughout the experiment were 36° C. with 5% CO2.
Slices were returned to culture medium with normal serum after each drug exposure. Tissues were harvested 16 hours after the last drug exposure by centrifugation.
For determination of MOR-G protein coupling, slices were homogenized to generate synaptic membranes. […] Following centrifugation, striatal membrane lysates were immunoprecipitated with immobilized anti-Gαs/olf or -Gαo conjugated with immobilized protein G-agarose beads. The level of MOR in anti-Gαs/olf or -Gαo immunoprecipitates was determined by Western blotting using specific anti-MOR antibodies.

[2] = Mouse hot-water tail-flick test; assay type: in vivo
Method: The mouse “tail flick” test was used to assay the relative antinociceptive activity of compositions containing a compound to be assayed. This assay was substantially that disclosed by Xie et al., 2005 J. Neurosci 25:409-416.
The mouse hot-water tail-flick test was performed by placing the distal third of the tail in a water bath maintained at 52° C. The latency until tail withdrawal from the bath was determined and compared among the treatments. A 10 second cutoff was used to avoid tissue damage. Data are converted to percentage of antinociception by the following formula: (response latency−baseline latency)/(cutoff−baseline latency)×100 to generate dose-response curves. […] Relative potency was determined as a ratio of the A50 values.
To assess tolerance to the antinociceptive effect, the compound was administered twice daily for 7 days at an A90 dose (dose that results in a 90% antinociceptive effect in the 52° C. warm-water tail-flick test), and the tail-flick test was performed daily after the a.m. dose.

[3] = biological target: Bn-VAKGL pentapeptide of filamin A (FLNA) (Homo sapiens, UniProt P21333); assay: FITC-NLX-based FLNA screening assay (FLNA peptide binding assay)
Method: The final assay volume is 100 μl.
Compounds are tested in triplicate or quadruplicate.

filamin A = filamin A (Homo sapiens, UniProt P21333); settings: Wang et al, 2008 PLoS One 3:e1554; read-out: affinity of binding to filamin A; cited from earlier work
[4] = read-out: Percent inhibition of FITC-NLX binding, 0.01 μM, 0.01 μM compound, 10 nM FITC-NLX
[5] = read-out: Percent inhibition of FITC-NLX binding, 0.1 μM, 0.1 μM compound, 10 nM FITC-NLX
[6] = read-out: Percent inhibition of FITC-NLX binding, 1 μM, 1 μM compound, 10 nM FITC-NLX
[7] = read-out: Percent inhibition of FITC-NLX binding, 0.01 μM
[8] = read-out: Percent inhibition of FITC-NLX binding, 0.1 μM
[9] = read-out: Percent inhibition of FITC-NLX binding, 1 μM

T1 sequence (P33535 whole entry): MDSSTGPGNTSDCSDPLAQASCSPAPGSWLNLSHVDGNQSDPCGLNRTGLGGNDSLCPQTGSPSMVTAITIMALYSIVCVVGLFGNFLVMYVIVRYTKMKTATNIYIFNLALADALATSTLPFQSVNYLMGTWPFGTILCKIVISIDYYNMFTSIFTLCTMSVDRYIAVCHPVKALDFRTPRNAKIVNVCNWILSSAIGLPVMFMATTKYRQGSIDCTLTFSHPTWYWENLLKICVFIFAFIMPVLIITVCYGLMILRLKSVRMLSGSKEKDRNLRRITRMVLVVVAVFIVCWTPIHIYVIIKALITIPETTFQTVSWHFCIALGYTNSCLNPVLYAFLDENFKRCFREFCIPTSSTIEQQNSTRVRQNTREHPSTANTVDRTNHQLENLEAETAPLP
Sequence of filamin A (P21333 whole entry): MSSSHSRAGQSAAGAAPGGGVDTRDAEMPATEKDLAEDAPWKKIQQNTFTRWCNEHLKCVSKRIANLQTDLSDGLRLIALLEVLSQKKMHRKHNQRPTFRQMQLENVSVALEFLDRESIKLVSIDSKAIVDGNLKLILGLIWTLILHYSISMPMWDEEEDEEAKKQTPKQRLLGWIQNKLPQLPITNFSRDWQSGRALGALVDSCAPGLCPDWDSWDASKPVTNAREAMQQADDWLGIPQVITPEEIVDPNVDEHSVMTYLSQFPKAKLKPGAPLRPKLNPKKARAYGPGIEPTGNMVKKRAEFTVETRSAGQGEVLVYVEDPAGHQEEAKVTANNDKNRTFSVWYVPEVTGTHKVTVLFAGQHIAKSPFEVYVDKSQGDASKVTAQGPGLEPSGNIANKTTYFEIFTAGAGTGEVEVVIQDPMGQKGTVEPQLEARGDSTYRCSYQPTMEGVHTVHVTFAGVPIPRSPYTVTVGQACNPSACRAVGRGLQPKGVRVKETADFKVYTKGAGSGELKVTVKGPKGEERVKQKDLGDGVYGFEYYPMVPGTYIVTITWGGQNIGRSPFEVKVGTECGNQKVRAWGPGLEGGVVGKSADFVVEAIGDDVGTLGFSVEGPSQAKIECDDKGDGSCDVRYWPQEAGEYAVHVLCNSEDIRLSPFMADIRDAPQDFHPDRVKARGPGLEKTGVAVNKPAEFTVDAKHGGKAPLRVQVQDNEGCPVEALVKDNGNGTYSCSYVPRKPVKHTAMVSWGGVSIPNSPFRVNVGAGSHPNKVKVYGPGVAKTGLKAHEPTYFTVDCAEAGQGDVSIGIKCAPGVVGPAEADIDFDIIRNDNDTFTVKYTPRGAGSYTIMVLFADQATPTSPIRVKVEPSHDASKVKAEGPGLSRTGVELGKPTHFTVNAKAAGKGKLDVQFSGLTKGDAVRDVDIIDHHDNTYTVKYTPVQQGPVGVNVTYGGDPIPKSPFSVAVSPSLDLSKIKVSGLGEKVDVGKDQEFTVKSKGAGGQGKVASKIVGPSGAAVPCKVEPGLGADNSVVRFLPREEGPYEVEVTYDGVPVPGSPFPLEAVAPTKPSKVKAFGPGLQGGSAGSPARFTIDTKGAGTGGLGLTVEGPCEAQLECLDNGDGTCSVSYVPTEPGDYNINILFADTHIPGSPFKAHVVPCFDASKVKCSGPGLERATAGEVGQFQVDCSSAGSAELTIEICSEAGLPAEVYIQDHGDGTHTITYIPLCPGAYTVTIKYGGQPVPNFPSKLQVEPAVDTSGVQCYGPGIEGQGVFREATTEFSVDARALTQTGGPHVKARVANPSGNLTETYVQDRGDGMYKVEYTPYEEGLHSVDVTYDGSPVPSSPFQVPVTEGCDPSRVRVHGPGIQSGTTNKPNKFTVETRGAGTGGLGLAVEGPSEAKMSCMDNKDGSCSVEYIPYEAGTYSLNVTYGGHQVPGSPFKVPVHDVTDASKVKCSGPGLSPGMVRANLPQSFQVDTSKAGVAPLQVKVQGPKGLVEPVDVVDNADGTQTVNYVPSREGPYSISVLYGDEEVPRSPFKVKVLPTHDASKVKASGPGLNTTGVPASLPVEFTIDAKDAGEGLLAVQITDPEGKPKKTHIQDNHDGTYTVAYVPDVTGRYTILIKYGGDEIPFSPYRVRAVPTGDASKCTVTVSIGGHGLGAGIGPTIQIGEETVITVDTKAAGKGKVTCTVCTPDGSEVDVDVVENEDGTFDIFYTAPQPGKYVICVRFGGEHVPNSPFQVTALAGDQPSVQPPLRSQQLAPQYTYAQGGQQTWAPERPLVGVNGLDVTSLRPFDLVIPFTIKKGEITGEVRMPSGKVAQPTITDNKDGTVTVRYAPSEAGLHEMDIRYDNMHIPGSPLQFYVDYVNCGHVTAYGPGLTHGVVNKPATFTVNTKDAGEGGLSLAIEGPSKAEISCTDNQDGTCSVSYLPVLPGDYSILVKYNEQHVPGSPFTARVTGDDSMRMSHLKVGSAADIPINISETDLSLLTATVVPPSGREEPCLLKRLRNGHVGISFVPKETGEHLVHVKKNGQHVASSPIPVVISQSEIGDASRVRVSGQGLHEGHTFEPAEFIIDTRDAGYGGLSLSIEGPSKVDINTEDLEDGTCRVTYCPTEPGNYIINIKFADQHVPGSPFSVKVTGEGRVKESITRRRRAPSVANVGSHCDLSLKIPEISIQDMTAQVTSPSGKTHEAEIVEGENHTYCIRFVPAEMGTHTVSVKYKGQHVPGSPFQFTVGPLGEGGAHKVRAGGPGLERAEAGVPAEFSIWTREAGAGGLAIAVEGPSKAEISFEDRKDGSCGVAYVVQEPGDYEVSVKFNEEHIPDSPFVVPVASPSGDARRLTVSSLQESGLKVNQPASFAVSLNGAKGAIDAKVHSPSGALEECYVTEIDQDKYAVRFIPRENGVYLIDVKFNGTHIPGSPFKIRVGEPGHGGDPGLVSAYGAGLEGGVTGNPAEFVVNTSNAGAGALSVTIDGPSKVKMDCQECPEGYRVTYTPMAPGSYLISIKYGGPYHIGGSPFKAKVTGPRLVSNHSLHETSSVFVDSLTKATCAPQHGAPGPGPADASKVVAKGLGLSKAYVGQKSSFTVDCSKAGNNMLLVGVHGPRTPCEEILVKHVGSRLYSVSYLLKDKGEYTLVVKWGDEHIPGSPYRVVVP

| SMILES | mean maximum antinociception ([2]; oral, 56 mg/kg) | [35S]GTPγS binding to Gαo, FLNA-binding compound as agonist 0.1 μM (μ opiate receptor (MOR)) [%] | [35S]GTPγS binding to Gαo, FLNA-binding compound as agonist 1 μM + BFNA (μ opiate receptor (MOR)) [%] | [35S]GTPγS binding to Gαo, FLNA-binding compound as agonist 1 μM (μ opiate receptor (MOR)) [%] | % DAMGO + BFNA (μ opiate receptor (MOR)) [%] | % DAMGO (0.1 μM) (μ opiate receptor (MOR)) [%] | % DAMGO (1 μM) (μ opiate receptor (MOR)) [%] | also measured |
| --- | --- | --- | --- | --- | --- | --- | --- | --- |
| CC1CCC(C(C)C)C(OCC(O)CN2CC(C)OC(C)C2)C1 (centres unmarked) [Compound 3333] | – | – | – | – | – | – | – | [35S]GTPγS binding to Gαo, FLNA-binding compound as agonist 0.1 μM (μ opiate receptor (MOR); listed as A3333): 170.7%; [35S]GTPγS binding to Gαo, FLNA-binding compound as agonist 1 μM + BFNA (μ opiate receptor (MOR); listed as A3333): 65.9%; [35S]GTPγS binding to Gαo, FLNA-binding compound as agonist 1 μM (μ opiate receptor (MOR); listed as A3333): 328.3%; Go (MOR in anti-Gαo immunoprecipitate), average ([1]; 10 μM): 1426.3; Gs/Go-Coupled Ratio, average ([1]; 10 μM): 0.761; Gs/olf (MOR in anti-Gαs/olf immunoprecipitate), average ([1]; 10 μM): 1079.0; Go (MOR in anti-Gαo immunoprecipitate), average ([1]; 100 μM): 1418.8; Gs/Go-Coupled Ratio, average ([1]; 100 μM): 0.756; Gs/olf (MOR in anti-Gαs/olf immunoprecipitate), average ([1]; 100 μM): 1064.8 |
| CC1CCC(C(C)C)C(OCC(O)CN2CCN(CCN3CCOCC3)CC2)C1 (centres unmarked) [Compound A0011] | about 38% | 236.3 | 47.0 | 287.5 | – | – | – | – |
| CC1CCCC(OCC(O)CN2CC(C)OC(C)C2)C1 (centres unmarked) [Compound A0021] | about 25% | 133.3 | 12.1 | 275.3 | – | – | – | – |
| CC1CN(CC(O)COc2ccc(Br)c(F)c2)CC(C)O1 (centres unmarked) [Compound A0041] | – | 212.7 | 50.6 | 283.6 | – | – | – | mean maximum antinociception ([2]; 32 mg/kg): about 12%; time of maximum antinociception ([2]; 32 mg/kg): 10 to 15 min |
| CC1CN(CC(O)COc2cccc(F)c2)CC(C)O1 (centres unmarked) [Compound A0049] | about 45% | 232.3 | 107.1 | 370.3 | – | – | – | – |
| OC(COc1ccccc1Br)CN1CCN(CCN2CCOCC2)CC1 (centres unmarked) [Compound A0064] | – | 219.2 | 43.7 | 262.9 | 126.7 | 127.4 | 119.7 | inhibition at 0.01 µM [3, 4]: 41.8%; inhibition at 0.1 µM [3, 5]: 46.2%; inhibition at 1 µM [3, 6]: 53.6%; mean maximum antinociception ([2]; 32 mg/kg): about 50%; time of maximum antinociception ([2]; 32 mg/kg): 30 to 50 min |
| CC1CCC(C(C)C)C(OCC(O)CN2CCc3ccccc32)C1 (centres unmarked) [Compound A0065] | about 25% | 197.6 | 44.9 | 266.8 | 112.5 | 126.6 | 115.7 | inhibition at 0.01 µM [3, 7]: 38.7%; inhibition at 0.1 µM [3, 8]: 50%; inhibition at 1 µM [3, 9]: 50.8% |
| COc1ccc(OCC(O)CN2CCC(=O)CC2)cc1 (centres unmarked) [Compound A0071] | – | 225.7 | 239.4 | 310.9 | 1088.2 | 128.2 | 122.9 | inhibition at 0.01 µM [3, 4]: 44.7%; inhibition at 0.1 µM [3, 5]: 46.8%; inhibition at 1 µM [3, 6]: 53.9% |
| CC1CCC(C(C)C)C(OCC(O)CN2CCN(Cc3ccccc3)CC2)C1 (centres unmarked) [Compound A0072] | – | 254.3 | 171.8 | 305.1 | 318.7 | 126.8 | 97.2 | inhibition at 0.01 µM [3, 7]: 45.5%; inhibition at 0.1 µM [3, 8]: 52.2%; inhibition at 1 µM [3, 9]: 59.4% |
| COc1ccc(OCC(O)CN2CCN(Cc3ccccc3)CC2)cc1 (centres unmarked) [Compound A0073] | – | 201.7 | 185.8 | 325.7 | 344.7 | 100.5 | 103.7 | inhibition at 0.01 µM [3, 7]: 47.3%; inhibition at 0.1 µM [3, 8]: 54.8%; inhibition at 1 µM [3, 9]: 59.7% |
| C=CCN1CC[C@]23c4c5ccc(O)c4O[C@H]2C(=O)CC[C@@]3(O)[C@H]1C5 [NLX, naloxone] | – | – | – | – | – | – | – | Kd (filamin A): ~4 pM |
| O=C1CC[C@@]2(O)[C@H]3Cc4ccc(O)c5c4[C@@]2(CCN3CC2CC2)[C@H]1O5 [NTX, naltrexone] | – | – | – | – | – | – | – | Kd (filamin A): ~4 pM |
| CN1CC[C@]23c4c5ccc(O)c4O[C@H]2[C@@H](O)C=C[C@H]3[C@H]1C5 [morphine, reference compound] | about 43% | – | – | – | – | – | – | time of maximum antinociception (peak activity) ([2]; oral, 56 mg/kg): about 20 minutes; time of maximum antinociception (peak activity) ([2]; oral, 56 mg/kg, listed as Morphine): twenty; A50 (dose that resulted in a 50% antinociceptive effect), with 95% CI ([2]; orally administered, 52° C. tail flick): 61.8 (52.4-72.9) mg/kg |

— patent US20100279997A1, “ANALGESIC THAT BINDS FILAMIN A” (priority 2009, published 2010)
